The test system of data set [1] is Pseudomonas aeruginosa T. Put plainly: Median protective dose against intraperitoneal infection in mice. The class given is in vivo, Pseudomonas aeruginosa; male ICR-SLC strain mice. The settings on record: sc, two subcutaneous treatments, 1 and 4 hours after infection, read-out: PD50. The source says:
(§1) The relative activities of the compounds of the present invention, Compound (A) and Compound (B) against various intraperitoneal infections in mice evaluated by mean median protective doses (subcutaneously administered) are shown in Table 3.
(§2) For each test, eight male ICR-SLC strain mice were used at each dose

Data set [2] concerns Serratia No. 72. Put plainly: Minimum inhibitory concentration, nutrient broth dilution method. The class given is cell-based. The procedure: (§3) The minimum inhibitory concentrations obtained with the example compounds, Compound (A) and Compound (B), against the following organisms representing 6 genera are shown in Table 1.
(§4) MIC was determined by the nutrient broth dilution method.
A general note: Dilution methods test growth across graded concentrations, often in twofold steps.

Data set [3] relates to Klebsiella pneumoniae PCI 602. The data set is described as above. The class given is cell-based. The settings on record: PCI602. The procedure:
as §3, §4

For data set [4], the system named is Proteus mirabilis GN 2425. The description is as above. The class given is cell-based. The settings on record: GN2425. The procedure:
as §3, §4

Data set [5] deals with Pseudomonas aeruginosa T. The data set is described as above. The class given is cell-based. The procedure: as §3, §4
In data set [6] the test system is Escherichia coli NIHJ. The description is as above. The class given is cell-based. The procedure: as §3, §4
The subject of data set [7] is Enterobacter aerogenes No. 75. The data set is described as above. The class given is cell-based. Particulars: Klebsiella aerogenes. The procedure:
as §3, §4

Data set [8] in a line: Antibiotic serum concentrations in mice following subcutaneous administration (disc method bioassay). Particulars: mouse, sc, 50 mg/kg; for Cmax: read-out: Peak concentration. The class given is in vivo, ICR-SLC strain mice. The procedure:
The antibiotic serum concentrations of the six cephalosporins following subcutaneous administration at 50 mg/kg to ICR-SLC strain mice are shown in Table 2.
The bioassay was carried out according to the disc method using
Pseudomonas aeruginosa.

The subject of data set [9] is Enterobacter aerogenes No. 75. Put plainly: Median protective dose against intraperitoneal infection in mice. The class given is in vivo, Enterobacter aerogenes; male ICR-SLC strain mice. Particulars: Klebsiella aerogenes, sc; Enterobacter aerogenes No. 75, intraperitoneal infection; two subcutaneous treatments, 1 and 4 hours after infection; read-out: PD50.
Text: as §1, §2

For data set [10], the system named is Serratia No. 75. Put plainly: Minimum inhibitory concentration, nutrient broth dilution method (Table 3). The class given is cell-based. The procedure:
as §4

Data set [11] relates to Escherichia coli No. 37. The description is as above. The class given is cell-based. The procedure: as §4
For data set [12], the system named is Serratia No. 75. Nature of the data set: Median protective dose against intraperitoneal infection in mice. The class given is in vivo, Serratia; male ICR-SLC strain mice. The settings on record: sc; Serratia No. 75, intraperitoneal infection; two subcutaneous treatments, 1 and 4 hours after infection; read-out: PD50.
Text: as §1, §2

Data set [13] deals with Escherichia coli No. 37. The description is as above. The class given is in vivo, Escherichia coli; male ICR-SLC strain mice. Particulars: sc; Escherichia coli No. 37, intraperitoneal infection; two subcutaneous treatments, 1 and 4 hours after infection; read-out: PD50.
Text: as §1, §2

Values after ≈ are worked out from the molar mass of the structure shown.

In general, MIC refers to the smallest concentration in the dilution series that meets the test's criterion for growth inhibition. High values mean weaker potency, low ones greater potency. Usually half-life stands for the time needed for the level to fall by half in the phase considered. On to `Cn1nnnc1SCC1=C(C(=O)O)N2C(=O)C(NC(=O)[C@H](NC(=O)c3cnc4cccnc4c3O)c3ccccc3)C2SC1` (some centres unmarked) [Example 3], for which the ED50 in [1] was found to be 28 mg/kg; in data set [9] it was 25 mg/kg; in [12], 25 mg/kg; in [13], 28 mg/kg. The MIC came to 12.5 µg/mL (≈ 19.7 µM) in data set [2]; 0.39 µg/mL (≈ 0.615 µM) in [3]; 12.5 µg/mL (≈ 19.7 µM) in data set [4]; 12.5 µg/mL (≈ 19.7 µM) in data set [5]; 0.78 µg/mL (≈ 1.23 µM) in data set [6]; 3.13 µg/mL (≈ 4.94 µM) in [7]. In addition, the MIC in [10] was found to be 6.25 µg/mL (≈ 9.86 µM); in data set [11], 3.13 µg/mL (≈ 4.94 µM). This molecule gave a half-life in data set [8] of 25 min. For the same molecule, in data set [8], the Cmax came out at 24000 ng/mL.
`O=C(O)C1=C(CSc2cnn[nH]2)CSC2C(NC(=O)[C@H](NC(=O)c3cnc4cccnc4c3O)c3ccccc3)C(=O)N12` (stereo partly drawn) [Example 4, 7-[d-α-(4-hydroxy-1,5-naphthyridine-3-carboxyamido)-α-phenylacetamido]-3-(1,2,3-triazole-5-yl)thiomethyl-3-cephem-4-carboxylic acid]: the ED50 in [1] turned out to be 30 mg/kg; in data set [9], 30 mg/kg; in data set [12], 30 mg/kg; in data set [13], 45 mg/kg. Besides, the MIC came to 25 µg/mL (≈ 40.4 µM) in data set [2]; 1.56 µg/mL (≈ 2.52 µM) in data set [3]; 25 µg/mL (≈ 40.4 µM) in data set [4]; 12.5 µg/mL (≈ 20.2 µM) in data set [5]; 1.56 µg/mL (≈ 2.52 µM) in [6]; 3.13 µg/mL (≈ 5.06 µM) in [7]. The MIC amounted to 12.5 µg/mL (≈ 20.2 µM) in [10] and 6.25 µg/mL (≈ 10.1 µM) in [11]. In [8], the half-life worked out at 30 min. In addition, the Cmax in data set [8] stood at 26000 ng/mL.
Regarding `CC(=O)OCC1=C(C(=O)O)N2C(=O)C(NC(=O)[C@H](NC(=O)c3cnccc3O)c3ccccc3)C2SC1` (stereo partly drawn) [Compound (B), sodium 7-[D-α-(4-hydroxypyridine-3-carboxyamino)-α-phenylacetamido] cephalosporanate, reference compound], the ED50 in data set [1] is 92 mg/kg; in data set [9], 170 mg/kg; in [12], greater than 150 mg/kg; in [13], 170 mg/kg. Further, the MIC in [2] is greater than 200 µg/mL; in data set [3], 12.5 µg/mL; in data set [4], 50 µg/mL; in [5], 25 µg/mL; in data set [6], 12.5 µg/mL; in data set [7], 25 µg/mL. The MIC was greater than 200 µg/mL in data set [10] and 25 µg/mL in data set [11]. The molecule also yielded a half-life in [8] of 30 min. Besides, the Cmax in data set [8] was found to be 26000 ng/mL.
With `Cc1nnc(SCC2=C(C(=O)O)N3C(=O)C(NC(=O)[C@H](NC(=O)c4cnc5cccnc5c4O)c4ccccc4)C3SC2)s1` (stereo partly drawn) [Example 2, 7-[D-α-(4-Hydroxy-1,5-naphthyridine-3-carboxyamido)-α-phenylacetamido]-3-(2-methyl-1,3,4-thiadiazole-5-yl)thiomethyl-3-cephem-4-carboxylicacid], the ED50 in [1] is 23 mg/kg; in data set [9], 28 mg/kg; in [12] it was 30 mg/kg; in data set [13], 41 mg/kg. Also, the MIC was found to be 12.5 µg/mL (≈ 19.2 µM) in data set [2]; 0.78 µg/mL (≈ 1.2 µM) in data set [3]; 12.5 µg/mL (≈ 19.2 µM) in data set [4]; 6.25 µg/mL (≈ 9.62 µM) in [5]; 1.56 µg/mL (≈ 2.4 µM) in data set [6]; 3.13 µg/mL (≈ 4.82 µM) in [7]. Further, the results for the MIC in data set [10] and in data set [11] were 12.5 µg/mL (≈ 19.2 µM) and 6.25 µg/mL (≈ 9.62 µM), respectively. For the same molecule, the half-life in [8] was determined as 35 min. Further, the Cmax in [8] was found to be 38000 ng/mL.
With `CC(=O)OCC1=C(C(=O)O)N2C(=O)C(NC(=O)[C@H](NC(=O)c3cnc4ccccc4c3O)c3ccccc3)C2SC1` (stereo partly drawn) [Compound (A), sodium 7-[D-α-(4-hydroxyquinoline-3-carboxyamino)-α-phenylacetamido] cephalosporanate, reference compound], the ED50 in [1] was greater than 100 mg/kg; in data set [9] it was 200 mg/kg; in data set [12], greater than 150 mg/kg; in data set [13], greater than 200 mg/kg. Moreover, the MIC in [2] was 100 µg/mL; in [3] it was 0.78 µg/mL; in [4], 25 µg/mL; in [5], 12.5 µg/mL; in [6] it was 6.25 µg/mL; in data set [7], 25 µg/mL. The minimal inhibitory concentration (MIC) amounted to 100 µg/mL in data set [10] and 12.5 µg/mL in data set [11]. Besides, the Cmax in [8] was less than 900 ng/mL.
Regarding `CC(=O)OCC1=C(C(=O)O)N2C(=O)C(NC(=O)[C@H](NC(=O)c3cnc4cccnc4c3O)c3ccccc3)C2SC1` (stereo partly drawn) [Example 1, 7-[D-α-(4-Hydroxy-1,5-naphthyridine-3-carboxyamido)-α-phenylacetamido] cephalosporanic acid], the ED50 in data set [1] is 18 mg/kg; in data set [9] it was 50 mg/kg; in data set [12] it was 65 mg/kg; in data set [13], 50 mg/kg. Also, the MIC in data set [2] worked out at 50 µg/mL (≈ 86.6 µM); in data set [3], 1.56 µg/mL (≈ 2.7 µM); in data set [4] it was 12.5 µg/mL (≈ 21.6 µM); in [5], 6.25 µg/mL (≈ 10.8 µM); in data set [6], 3.13 µg/mL (≈ 5.42 µM); in data set [7] it was 6.25 µg/mL (≈ 10.8 µM). In addition, the MIC in data set [10] came out at 50 µg/mL (≈ 86.6 µM); in data set [11], 6.25 µg/mL (≈ 10.8 µM). In data set [8], this molecule came in with a half-life of 25 min. Also, the Cmax in data set [8] turned out to be 44000 ng/mL.

The record behind these values is patent US4061748A, “7-(α-(4 -Hydroxy-1,5-naphthyridine-3-carbonamido)-α-phenylacetamido) cephalosporin derivatives” (Sumitomo Chemical Company, Limited, priority 1975, dated 1977).
